Patent publication US20230365568A1, “PLK1 POLO BOX DOMAIN INHIBITORS AND METHOD OF TREATING CANCER” (The United States of America,as represented by the …, priority 2020, published 2023)
Where two headings read alike, the source gives them in different places.

Columns and labels:
[1] = target: full-length human Plk1 (Homo sapiens (Human), UniProt P53350); experiment: ELISA-based Plk1 PBD-binding inhibition assay; details: for IC50: Plk1 PBD, n = 3 unless noted
Protocol: An ELISA-based PBD-binding inhibition assay was performed essentially as described previously. […] The wells were washed once with PBS+0.05% Tween20 (PBST) and incubated with 200 μl of PBS plus 1% BSA (blocking buffer) for 1 h to prevent non-specific binding. HEK293A lysates expressing HA-EGFP-Plk1 were prepared in a TBSN [20 mM Tris-HCl (pH 8.0), 150 mM NaCl, 0.5% NP-40, 5 mM EGTA, 2 mM MgCl2, 1.5 mM EDTA, and protease inhibitor cocktail (Roche)]+20% DMSO buffer (˜20 μg total lysates in 100 μl buffer), mixed with the indicated amount of the competitors (p-T78 peptide and its derivative compounds) for 30 min, provided onto the biotinylated peptide-coated ELISA wells, and then incubated with constant rocking for 1 h at 25° C. Following the incubation, ELISA plates were washed 5 times with PBST. To detect bound HA-EGFP-Plk1, the plates were probed for 2 h with 100 μl/well of anti-HA antibody at a concentration of 0.5 μg/ml in the blocking buffer and then washed 5 times. The plates were further probed for 1 h with 100 μl/well of HRP-conjugated secondary antibody (GE Healthcare) at a 1:1,000 dilution in the blocking buffer. The plates were washed 5 times with PBST and incubated with 100 μl/well of 3,3′,5,5′-tetramethylbenzidine solution (Sigma-Aldrich, St. Louis, MO) as substrate until a desired absorbance was reached. The reactions were stopped by the addition of 100 μl/well of stop solution (Cell Signaling Technology, Danvers, MA). The optical density (O.D.) was measured at 450 nm by using a Perkin-Elmer Enspire Multimode Plate reader (PerkinElmer, Inc., Boston, MA). Data obtained from more than three independent experiments were analyzed by GraphPad (San Diego, CA) Prism software version 7.
ELISA-based PBD-binding Inhibition Assay. […] The reaction products were measured at 450 nm by using a Perkin-Elmer Enspire Multimode Plate reader (PerkinElmer, Inc., Boston, MA). Data obtained from more than three independent experiments were analyzed by GraphPad (San Diego, CA) Prism software version 7.

[2] = Aqueous solubility; details: aqueous solubility
[3] = Microsomal metabolic stability, rat liver microsomes (RLM); details: rat liver microsomes
[4] = PAMPA permeability
[5] = system: multiple myeloma-derived L363 cells; experiment: MTS cell proliferation assay in L363 cells; assay type: cell-based; details: Homo sapiens, L-363, 48 h treatment, read-out: Cell efficacy, GI50 ± sd
Protocol: MTS Assay. […] 96™ AQueous One Solution Cell Proliferation Assay (MTS) kit (Promega, WI). Briefly, asynchronously growing L363 cells cultured in a 96-well plate were treated with the indicated compounds for 48 h.

Sequence of full-length human Plk1 (P53350 whole entry): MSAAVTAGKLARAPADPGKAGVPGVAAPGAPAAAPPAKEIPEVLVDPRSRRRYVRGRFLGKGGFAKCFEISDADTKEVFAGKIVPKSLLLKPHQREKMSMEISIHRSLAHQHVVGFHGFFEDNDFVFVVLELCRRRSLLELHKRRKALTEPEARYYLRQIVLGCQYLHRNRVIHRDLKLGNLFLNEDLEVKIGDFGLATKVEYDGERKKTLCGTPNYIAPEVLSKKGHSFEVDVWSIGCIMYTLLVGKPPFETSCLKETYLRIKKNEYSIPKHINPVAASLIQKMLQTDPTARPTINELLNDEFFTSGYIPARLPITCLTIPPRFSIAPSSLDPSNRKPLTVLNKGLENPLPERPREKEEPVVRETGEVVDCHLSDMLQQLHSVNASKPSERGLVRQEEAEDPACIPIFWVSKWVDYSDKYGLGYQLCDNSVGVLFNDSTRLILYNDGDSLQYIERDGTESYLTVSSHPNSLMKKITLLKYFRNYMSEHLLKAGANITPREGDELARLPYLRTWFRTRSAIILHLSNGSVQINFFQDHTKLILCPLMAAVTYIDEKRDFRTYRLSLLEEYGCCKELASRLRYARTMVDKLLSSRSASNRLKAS

| PAMPA [×10⁻⁶ cm/s] | GI50 [5] [nM] | SMILES | IC50 [1] [µM] | Solub. [2] [µg/mL] | t1/2 (min, RLM) [3] | PAMPA [4] [×10⁻⁶ cm/s] | lower IC50 compared to 14 ([1]; ELISA assay) [%] |
| --- | --- | --- | --- | --- | --- | --- | --- |
| – | – | Cc1cccc(-n2c(=O)c3ccccc3n3c(=S)[nH]nc23)c1C [compound 33] | 1.85 ± 0.12 | – | – | – | – |
| – | – | O=C(Cc1cccnc1)NCCCn1c(=O)c2cc(F)ccc2n2c(=S)[nH]nc12 [compound 137, N-(3-(7-Fluoro-5-oxo-1-thioxo-1,2-dihydro-[1,2,4]triazolo[4,3-a]quinazolin-4(5H)-yl)propyl)-2-(pyridine-3-yl)acetamide] | – | 31.8 | >30 min | 21.0 | – |
| – | – | O=C(Cc1ccccc1)NCCCn1c(=O)c2cc(F)ccc2n2c(=S)[nH]nc12 [compound 120, N-(3-(7-fluoro-5-oxo-1-thioxo-1,2-dihydro-[1,2,4]triazolo[4,3-a]quinazolin-4(5H)-yl)propyl)-2-phenylacetamide] | – | 31.7 | 18.7 min | 248 | – |
| – | 3110 | Cc1cc2c(s1)c(=O)n(CC1CC1)c1nnc(Sc3c([N+](=O)[O-])ncn3C)n21 [85 (NCK182), 4-(cyclopropylmethyl)-7-methyl-1-((1-methyl-4-nitro-1H-imidazol-5-yl)thio)thieno[2,3-e][1,2,4]triazolo[4,3-a]pyrimidin-5(4H)-one] | – | – | – | – | – |
| – | 4140 ± 310 | CCCn1c(=O)c2sc(C)cc2n2c(Sc3c([N+](=O)[O-])ncn3C)nnc12 [75 (NCK173), 7-methyl-1-((1-methyl-4-nitro-1H-imidazol-5-yl)thio)-4-propylthieno[2,3-e][1,2,4]triazolo[4,3-a]pyrimidin-5(4H)-one] | – | – | – | – | – |
| – | – | CCCCCn1c(=O)c2ccccc2n2c(=S)[nH]nc12 [compound 24] | 1.97 ± 0.11 | 4.2 | – | – | – |
| – | – | O=C(Cc1ccncc1)NCCCn1c(=O)c2cc(F)ccc2n2c(=S)[nH]nc12 [compound 138, N-(3-(7-fluoro-5-oxo-1-thioxo-1,2-dihydro-[1,2,4]triazolo[4,3-a]quinazolin-4(5H)-yl)propyl)-2-(pyridine-4-yl)acetamide] | – | 9.6 | >30 min | <1 | – |
| – | – | O=C(Cc1cccc(Cl)c1)NCCCn1c(=O)c2cc(F)ccc2n2c(=S)[nH]nc12 [compound 124, 2-(3-chlorophenyl)-N-(3-(7-fluoro-5-oxo-1-thioxo-1,2-dihydro-[1,2,4]triazolo[4,3-a]quinazolin-4(5H)-yl)propyl)acetamide] | – | >66 | 8.4 min | 861 | – |
| – | – | O=C(Cc1ccccn1)NCCCn1c(=O)c2cc(F)ccc2n2c(=S)[nH]nc12 [compound 136, N-(3-(7-Fluoro-5-oxo-1-thioxo-1,2-dihydro-[1,2,4]triazolo[4,3-a]quinazolin-4(5H)-yl)propyl)-2-(pyridine-2-yl)acetamide] | – | 41.4 | >30 min | 68.0 | – |
| – | – | N#Cc1ccccc1CC(=O)NCCCn1c(=O)c2cc(F)ccc2n2c(=S)[nH]nc12 [compound 133, 2-(2-cyanophenyl)-N-(3-(7-fluoro-5-oxo-1-thioxo-1,2-dihydro-[1,2,4]triazolo[4,3-a]quinazolin-4(5H)-yl)propyl)acetamide] | – | 20.9 | >30 min | 156 | – |
| – | – | O=C(Cc1ccccc1C(F)(F)F)NCCCn1c(=O)c2cc(F)ccc2n2c(=S)[nH]nc12 [compound 131, N-(3-(7-fluoro-5-oxo-1-thioxo-1,2-dihydro-[1,2,4]triazolo[4,3-a]quinazolin-4(5H)-yl)propyl)-2-(2-(trifluoromethyl)phenyl)acetamide] | – | 40.3 | 3.7 min | 825 | – |
| – | > 400000 | CCCn1c(=O)c2sc(C)cc2n2c(Sc3c(S(N)(=O)=O)ncn3C)nnc12 [77 (NCK175), 1-methyl-5-((7-methyl-5-oxo-4-propyl-4,5-dihydrothieno[2,3-e][1,2,4]triazolo[4,3-a]pyrimidin-1-yl)thio)-1H-imidazole-4-sulfonamide] | – | – | – | – | – |
| – | – | CC(C)CCn1c(=O)c2ccccc2n2c(=S)[nH]nc12 [compound 25] | 1.73 ± 0.08 | 8.0 | – | – | – |
| – | – | COCCCn1c(=O)c2ccccc2n2c(=S)[nH]nc12 [compound 28] | 1.75 ± 0.19 | 31.2 | – | – | – |
| – | – | C=CCn1c(=O)c2ccccc2n2c(=S)[nH]nc12 [compound 22] | 1.31 ± 0.03 | 19.4 | – | – | – |
| – | – | CC(C)(C)OC(=O)Nc1ccc(CC(=O)NCCCn2c(=O)c3cc(F)ccc3n3c(=S)[nH]nc23)cc1 [compound 135, tert-butyl (4-(2-((3-(7-fluoro-5-oxo-1-thioxo-1,2-dihydro-[1,2,4]triazolo[4,3-a]quinazolin-4(5H)-yl)propyl)amino)-2-oxoethyl)phenyl)carbamate] | – | 17.4 | >30 min | 910 | – |
| 267 | – | O=C(NCCCn1c(=O)c2cc(F)ccc2n2c(=S)[nH]nc12)c1ccccc1 [compound 74] | – | 21.9 | >30 min | – | – |
| – | – | O=C(Cc1cccc(F)c1)NCCCn1c(=O)c2cc(F)ccc2n2c(=S)[nH]nc12 [compound 122, N-(3-(7-fluoro-5-oxo-1-thioxo-1,2-dihydro-[1,2,4]triazolo[4,3-a]quinazolin-4(5H)-yl)propyl)-2-(3-fluorophenyl)acetamide] | – | >63 | 26.5 min | 364 | – |
| 885 | – | Nc1nnc2n(CCc3ccccc3)c(=O)c3cc(F)ccc3n12 [compound 16] | – | 2.2 | 29.4 min | – | – |
| – | – | CCCn1c(=O)c2ccccc2n2c(=S)n(CC(=O)c3ccccc3)nc12 [compound 39] | > 50 | – | – | – | – |
| 82 | – | O=c1c2ccccc2n2c(=S)[nH]nc2n1CCC(F)(F)F [compound 27] | – | 23.3 | >30, min | – | – |
| 427 | – | CCn1c(=O)c2ccccc2n2c(=S)[nH]nc12 [compound 20] | – | >36 | >30 min | – | – |
| 3.0 | – | NS(=O)(=O)CCCC(=O)NCCCn1c(=O)c2cc(F)ccc2n2c(=S)[nH]nc12 [compound 107] | – | 42.4 | >30 min | – | – |
| – | – | CCOCCCn1c(=O)c2ccccc2n2c(=S)[nH]nc12 [compound 29] | 1.68 ± 0.11 | 15.5 | – | – | 29 |
| <1 | – | O=C(O)CCC(=O)NCCCn1c(=O)c2cc(F)ccc2n2c(=S)[nH]nc12 [compound 106] | – | >58 | >30 min | – | – |
| – | – | COc1ccccc1CC(=O)NCCCn1c(=O)c2cc(F)ccc2n2c(=S)[nH]nc12 [compound 128, N-(3-(7-fluoro-5-oxo-1-thioxo-1,2-dihydro-[1,2,4]triazolo[4,3-a]quinazolin-4(5H)-yl)propyl)-2-(2-methoxyphenyl)acetamide] | – | >65 | 16.1 min | 379 | – |
| – | – | O=C(Cc1ccc(Br)cc1)NCCCn1c(=O)c2cc(F)ccc2n2c(=S)[nH]nc12 [compound 125, 2-(4-bromophenyl)-N-(3-(7-fluoro-5-oxo-1-thioxo-1,2-dihydro-[1,2,4]triazolo[4,3-a]quinazolin-4(5H)-yl)propyl)acetamide] | – | <1 | 20.6 min | 767 | – |
| 161 | – | CNC(=S)N1CN(CCc2ccccc2)C(=O)c2cc(F)ccc21 [compound 62] | – | 4.5 | 2.2 min | – | – |
| – | – | Cc1ccc(CC(=O)NCCCn2c(=O)c3cc(F)ccc3n3c(=S)[nH]nc23)cc1 [compound 126, N-(3-(7-fluoro-5-oxo-1-thioxo-1,2-dihydro-[1,2,4]triazolo[4,3-a]quinazolin-4(5H)-yl)propyl)-2-(p-tolyl)acetamide] | – | 12.9 | 23.9 min | 621 | – |

| SMILES | PAMPA [×10⁻⁶ cm/s] | GI50 [5] [nM] | IC50 [1] [µM] | Solub. [2] [µg/mL] | t1/2 (min, RLM) [3] | PAMPA [4] [×10⁻⁶ cm/s] | lower IC50 compared to 14 ([1]; ELISA assay) [%] |
| --- | --- | --- | --- | --- | --- | --- | --- |
| CCCCn1c(=O)c2ccccc2n2c(=S)[nH]nc12 [compound 23] | 77.5 | – | 1.03 ± 0.14 | 8.5 | >30 min | – | – |
